Experimental data reported in patent US9523100B2, “Pesticidal compositions and related methods” (DOW AGROSCIENCES LLC, priority 2013, dated 2016).
Where two headings read alike, the source gives them in different places.

Columns and labels:
[1] = system: Green Peach Aphid (GPA) (Myzus persicae) (MYZUPE); assay: Bioassay for Green Peach Aphid (GPA), foliar spray on cabbage seedlings; type: in vivo; settings: 72 h, read-out: GPA 200 ppm, % Control (or Mortality) rating
Summary of the method: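 Cabbage seedlings infested with 20-50 GPA (wingless adults and nymphs) one day before spraying to runoff with 200 ppm compound; four pots per treatment. Live aphids counted after three days at ~25° C; percent control by Abbott's correction against solvent-sprayed plants.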

[2] = system: Sweetpotato Whitefly-Crawler (WF) (Bemisia tabaci) (BEMITA); assay: Insecticidal test for Sweetpotato Whitefly-Crawler (WF) in foliar spray assay on cotton plants; type: in vivo; settings: 216 h, read-out: WF 200 ppm, % Control (or Mortality) rating
Summary of the method: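 Cotton plants carrying 200–400 whitefly eggs sprayed to run-off on both leaf surfaces at 200 ppm (acetone/0.025% Tween 20), four plants per treatment. After 9 days at about 25 °C, live 3rd–4th instar nymphs counted; Abbott-corrected percent control versus solvent check.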

[3] = 200 ppm foliar spray on cabbage seedlings, graded after three days, Abbott corrected % control
[4] = 200 ppm foliar spray on cotton plants, graded after 9 days, Abbott corrected % control

| Structure (SMILES) | mortality at 200 ppm [1, 3] | mortality at 200 ppm [2, 4] | mortality at 200 ppm ([1]; foliar) | mortality at 200 ppm ([2]; foliar) |
| --- | --- | --- | --- | --- |
| CCN(C(=O)CNC(=O)CCC(F)(F)F)c1cn(-c2cccnc2)nc1Cl [Compound F97, N-(2-((3-Chloro-1-(pyridin-3-yl)-1H-pyrazol-4-yl)(ethyl)amino)-2-oxoethyl)-4,4,4-trifluorobutanamide] | 80 to 100% | 80 to 100% | – | – |
| CCN(C(=O)CCC(=O)CCC(F)(F)F)c1cn(-c2cccnc2)nc1Cl [FA76, N-(3-Chloro-1-(pyridin-3-yl)-1H-pyrazol-4-yl)-N-ethyl-7,7,7-trifluoro-4-oxoheptanamide] | 0 to 80% | 80 to 100% | – | – |
| CCN(C(=O)CCN(CC(F)F)C(=O)CCC(F)(F)F)c1cn(-c2cccnc2)nc1Cl [Compound F89, N-(3-((3-Chloro-1-(pyridin-3-yl)-1H-pyrazol-4-yl)(ethyl)amino)-3-oxopropyl)-N-(2,2-difluoroethyl)-4,4,4-trifluorobutanamide] | 80 to 100% | 80 to 100% | – | – |
| CCN(C(=O)C1CCCN(C(=O)C(F)(F)F)C1)c1cn(-c2cccnc2)nc1Cl (stereo not drawn) [FA41, N-(3-Chloro-1-(pyridin-3-yl)-1H-pyrazol-4-yl)-N-ethyl-1-(2,2,2-trifluoroacetyl)piperidine-3-carboxamide] | 80 to 100% | 0 to 80% | – | – |
| CCN(C(=O)C1CCN(C(=O)CC(F)(F)F)C1)c1cn(-c2cccnc2)nc1Cl (stereo not drawn) [Compound P21, N-(3-Chloro-1-(pyridin-3-yl)-1H-pyrazol-4-yl)-N-ethyl-1-(3,3,3-trifluoropropanoyl)pyrrolidine-3-carboxamide] | 80 to 100% | 0 to 80% | – | – |
| CN(C(=O)CN1CCOC1=O)c1cn(-c2cccnc2)nc1Cl [Compound F111, N-(3-Chloro-1-(pyridin-3-yl)-1H-pyrazol-4-yl)-N-methyl-2-(2-oxooxazolidin-3-yl)acetamide] | 80 to 100% | 80 to 100% | – | – |
| CCN(C(=O)C1CCN(C(=O)CCC(F)(F)F)C1)c1cn(-c2cccnc2)nc1Cl (stereo not drawn) [FA10, N-(3-Chloro-1-(pyridin-3-yl)-1H-pyrazol-4-yl)-N-ethyl-1-(4,4,4-trifluorobutanoyl)pyrrolidine-3-carboxamide] | 80 to 100% | 80 to 100% | – | – |
| CCN(C(=O)CC/C(C)=N/OCc1ccc(C(F)(F)F)nc1)c1cn(-c2cccnc2)nc1Cl [FA22, (E/Z)-N-(3-Chloro-1-(pyridin-3-yl)-1H-pyrazol-4-yl)-N-ethyl-4-(((6-(trifluoromethyl)pyridin-3-yl)methoxy)imino)pentanamide] | 0 to 80% | 80 to 100% | – | – |
| CCN(C(=O)CC/C(=N/OCC1CC1(F)F)c1cccs1)c1cn(-c2cccnc2)nc1Cl (stereo not drawn) [FA39, (Z)-N-(3-Chloro-1-(pyridin-3-yl)-1H-pyrazol-4-yl)-4-(((2,2-difluorocyclopropyl)methoxy)imino)-N-ethyl-4-(thiophen-2-yl)butanamide] | 0 to 80% | 0 to 80% | – | – |
| CCN(C(=O)C(C)C/C=N/OCCC1CC1(F)F)c1cn(-c2cccnc2)nc1Cl (stereo not drawn) [FA60, (E)-N-(3-Chloro-1-(pyridin-3-yl)-1H-pyrazol-4-yl)-4-((2-(2,2-difluorocyclopropyl)ethoxy)imino)-N-ethyl-2-methylbutanamide] | 80 to 100% | 80 to 100% | – | – |
| CCN(C(=O)CCN(CC(F)F)C(=O)n1ccnc1)c1cn(-c2cccnc2)nc1Cl [Compound F17, N-(3-((3-chloro-1-(pyridin-3-yl)-1H-pyrazol-4-yl)(ethyl)amino)-3-oxopropyl)-N-(2,2-difluoroethyl)-1H-imidazole-1-carboxamide] | – | – | 0 to 80% | 80 to 100% |
| CCN(C(=O)CC/C(C)=N/O)c1cn(-c2cccnc2)nc1Cl [Compound F105, (E)-N-(3-chloro-1-(pyridin-3-yl)-1H-pyrazol-4-yl)-N-ethyl-4-(hydroxyimino) pentanamide] | 0 to 80% | 80 to 100% | – | – |
| CCN(C(=O)C1CCN(C(=O)c2cccnc2)C1)c1cn(-c2cccnc2)nc1Cl (stereo not drawn) [FA12, N-(3-Chloro-1-(pyridin-3-yl)-1H-pyrazol-4-yl)-N-ethyl-1-nicotinoylpyrrolidine-3-carboxamide] | 0 to 80% | 0 to 80% | – | – |
| CCN(C(=O)CNC(=O)OC(C)(C)C)c1cn(-c2cccnc2)nc1Cl [Compound F2, tert-Butyl (2-((3-chloro-1-(pyridin-3-yl)-1H-pyrazol-4-yl)(ethyl)amino)-2-oxoethyl)carbamate] | 80 to 100% | 80 to 100% | – | – |
| CCN(C(=O)C1CCN(C(=O)CCC#N)CC1)c1cn(-c2cccnc2)nc1Cl [FA7, N-(3-Chloro-1-(pyridin-3-yl)-1H-pyrazol-4-yl)-1-(3-cyanopropanoyl)-N-ethylpiperidine-4-carboxamide] | 80 to 100% | < 0% | – | – |
| CCN(C(=O)CC/C(=N\OCC1CC1(F)F)c1cccs1)c1cn(-c2cccnc2)nc1Cl (stereo not drawn) [FA38, (E)-N-(3-Chloro-1-(pyridin-3-yl)-1H-pyrazol-4-yl)-4-(((2,2-difluorocyclopropyl)methoxy)imino)-N-ethyl-4-(thiophen-2-yl)butanamide] | 0 to 80% | 0 to 80% | – | – |
| CCN(C(=O)CC/C(C)=N/OCC(F)(F)F)c1cn(-c2cccnc2)nc1Cl [Compound F51, (E/Z)-N-(3-Chloro-1-(pyridin-3-yl)-1H-pyrazol-4-yl)-N-ethyl-4-((2,2,2-trifluoroethoxy)imino) pentanamide] | 80 to 100% | 80 to 100% | – | – |
| CCN(C(=O)C1CCN(C(=O)C(F)(F)F)C1)c1cn(-c2cccnc2)nc1Cl (stereo not drawn) [FA9, N-(3-Chloro-1-(pyridin-3-yl)-1H-pyrazol-4-yl)-N-ethyl-1-(2,2,2-trifluoroacetyl)pyrrolidine-3-carboxamide] | 80 to 100% | < 0% | – | – |
| CCN(C(=O)C1CCN(C(=O)CC(F)(F)F)CC1)c1cn(-c2cccnc2)nc1Cl [Compound P16, N-(3-chloro-1-(pyridin-3-yl)-1H-pyrazol-4-yl)-N-ethyl-1-(3,3,3-trifluoropropanoyl) piperidine-4-carboxamide] | 80 to 100% | 0 to 80% | – | – |
| CCN(C(=O)CC1CN(Cc2ccc(C(F)(F)F)cc2)C1=O)c1cn(-c2cccnc2)nc1Cl (stereo not drawn) [Compound F14] | 0 to 80% | 80 to 100% | – | – |
| CCN(C(=O)CCC(=O)NCc1ccncc1)c1cn(-c2cccnc2)nc1Cl [Compound F115, N1-(3-Chloro-1-(pyridin-3-yl)-1H-pyrazol-4-yl)-N1-ethyl-N4-(pyridin-4-ylmethyl)succinamide] | 0 to 80% | 80 to 100% | – | – |
| CCN(C(=O)C(C)O)c1cn(-c2cccnc2)nc1Cl (stereo not drawn) [Compound C13, N-(3-chloro-1-(pyridin-3-yl)-1H-pyrazol-4-yl)-N-ethyl-2-hydroxypropanamide] | 80 to 100% | 80 to 100% | – | – |
| CCN(C(=O)CCC(=O)N1CCCCCC1)c1cn(-c2cccnc2)nc1Cl [Compound F100, 4-(Azepan-1-yl)-N-(3-chloro-1-(pyridin-3-yl)-1H-pyrazol-4-yl)-N-ethyl-4-oxobutanamide] | 0 to 80% | 80 to 100% | – | – |
| CCN(C(=O)CCCC1CN(Cc2ccc(C(F)(F)F)cc2)C1=O)c1cn(-c2cccnc2)nc1Cl (stereo not drawn) [Compound F127, N-(3-Chloro-1-(pyridin-3-yl)-1H-pyrazol-4-yl)-N-ethyl-4-(2-oxo-1-(4-(trifluoromethyl)benzyl)azetidin-3-yl)butanamide] | 0 to 80% | 80 to 100% | – | – |
| CCN(C(=O)Cn1ccccc1=O)c1cn(-c2cccnc2)nc1Cl [Compound F122, N-(3-Chloro-1-(pyridin-3-yl)-1H-pyrazol-4-yl)-N-ethyl-2-(2-oxopyridin-1(2H)-yl)acetamide] | 0 to 80% | 80 to 100% | – | – |
| CCN(C(=O)CCC(=O)N(C)Cc1ccco1)c1cn(-c2cccnc2)nc1Cl [FA77, N1-(3-Chloro-1-(pyridin-3-yl)-1H-pyrazol-4-yl)-N1-ethyl-N4-(furan-2-ylmethyl)-N4-methylsuccinamide] | 0 to 80% | 80 to 100% | – | – |
| CCN(C(=O)CCN(C)C(C)=O)c1cn(-c2cccnc2)nc1Cl [Compound F64, N-(3-chloro-1-(pyridin-3-yl)-1H-pyrazol-4-yl)-N-ethyl-3-(N-methylacetamido) propanamide] | 80 to 100% | 80 to 100% | – | – |
| CCN(C(=O)CNC(=O)C1(C)CC1(F)F)c1cn(-c2cccnc2)nc1Cl (stereo not drawn) [Compound F1, N-(2-((3-Chloro-1-(pyridin-3-yl)-1H-pyrazol-4-yl)(ethyl)amino)-2-oxoethyl)-2,2-difluoro-1-methylcyclopropanecarboxamide] | 80 to 100% | 80 to 100% | – | – |
| CCN(C(=O)CC/C(C)=N\OCCC1CC1(F)F)c1cn(-c2cccnc2)nc1Cl (stereo not drawn) [FA49, (Z)-N-(3-Chloro-1-(pyridin-3-yl)-1H-pyrazol-4-yl)-4-((2-(2,2-difluorocyclopropyl)ethoxy)imino)-N-ethylpentanamide] | 0 to 80% | 80 to 100% | – | – |
| CCN(C(=O)CC/C(C)=N/OCCCCC(F)(F)F)c1cn(-c2cccnc2)nc1Cl [FA4, (E/Z)-N-(3-Chloro-1-(pyridin-3-yl)-1H-pyrazol-4-yl)-N-ethyl-4-(((5,5,5-trifluoropentyl)oxy)imino)pentanamide] | 0 to 80% | 80 to 100% | – | – |
